What was measured:
[1] = test system: brain homogenate lipid peroxidation; experiment: Lipid peroxidation-inhibitory action (brain homogenate, MDA); type: biochemical, SD rat; details: rat brain homogenate, 37° C. for 30 min
Experimental: The brain was removed from male SD rat, and a 50 mM phosphate buffer (pH 7.4, 5-fold amount of brain weight) was added. The mixture was homogenized under ice-cooling for 30 sec, and centrifuged at 4° C., 3200 rpm for 10 min. The supernatant was diluted 5-fold with 50 mM phosphate buffer to give a brain homogenate. A test compound (10 μL) was placed in a glass test tube, the brain homogenate (1 mL) was added, and the mixture was incubated at 37° C. for 30 min. 20% Trichloroacetic acid (1 mL) was added to quench the reaction. The reaction mixture was centrifuged at room temperature, 4000 rpm for 10 min. Thiobarbituric acid (0.2 mL) was added to the supernatant (1 mL) and the mixture was heated at 95° C. for 15 min. The absorbance at 532 nm was measured, and lipid peroxide was quantified as malondialdehyde (MDA). The MDA level was compared between the control and the test compound-added sample, and the lipid peroxidation inhibitory rate was calculated.

[2] = Stable radical elimination action (DPPH); details: 0.1 mM DPPH
Experimental: 0.1 mM Diphenyl-2-picrylhydrazyl (DPPH) acetonitrile (CH3CN) solution (3 mL) was placed in a glass test tube, and a DMSO solution of a test compound was added at a 1% dose (30 μL). As a control, 0.1 mM DPPH CH3CN solution (3 mL) containing DMSO (30 μL) was used and for a blank test, CH3CN (3 mL) containing DMSO (30 μL) was used. After standing the solutions at room temperature for 60 min (20 min for Examples 69, 72 and 73), the absorbance at 517 nm was measured by a spectrophotometer. A stable radical inhibitory rate when control was 100% was calculated from [(absorbance of test substance−absorbance of blank test)÷(absorbance of control−absorbance of blank test)].

[3] = test system: liver ACAT; experiment: ACAT inhibitory activity (rabbit liver microsome, cholesteryl oleate production); type: biochemical, Japanese white rabbits; details: 37° C. for 20 min
Experimental: Male Japanese white rabbits (body weight 2-2.5 kg) were bred on 100 g of a high cholesterol feed (feed added with cholesterol 1%, CLEA Japan, Inc.) daily for 4 weeks and sacrificed by exsanguination under anesthesia. The liver was removed, homogenated and centrifuged at 10,000 rpm and 4° C. for 15 min. The obtained supernatant was further centrifuged at 41,000 rpm and 4° C. for 60 min to give a microsome fraction. To a 0.15 M phosphate buffer were added the microsome suspension as an enzyme specimen, dimethyl sulfoxide (DMSO) or a solution (3 μL) of a test compound in DMSO and [1-14C]-oleoyl-CoA to be a reaction substrate to the total amount of 300 μL. After incubation at 37° C. for 20 min, a mixed solution of chloroform-methanol was added to quench the reaction. Water was added thereto and mixed, and the chloroform layer was separated. The solvent was evaporated to dryness and the residue was redissolved in n-hexane. The resulting solution was subjected to thin layer chromatography using a silica gel plate. The spot of cholesteryl oleate on the silica gel plate was scraped and quantified on a liquid scintillation counter. The ACAT inhibitory activity of the test compound is shown in cholesteryl oleate production inhibitory rate (%) [level of inhibition of cholesteryl oleate production as compared to the control].

[4] = test system: THP-1 cell-derived macrophage; experiment: Cholesterol ester accumulation-inhibitory activity (THP-1 cell-derived macrophage foam cell formation); type: cell-based; details: THP-1 macrophage, acetyl LDL, 3 days
Experimental: THP-1 cells (DAINIPPON PHARMACEUTICAL CO., LTD.) were subcultured in RPMI-1640 medium containing 10% fetal calf serum (FBS), and cells at 6-13th passage after purchase were used. The cells were suspended in FBS-containing RPMI-1640 medium to give a suspension having a concentration of 4×10^5 cells/mL. The cell suspension was seeded on 12-well microplate by 1 mL, and treated with phorbol 12-myristate 13-acetate (PMA, 200 nM) as a differentiation inducer into macrophage. Then, acetyl LDL (400 μg/mL) separately prepared from LDL derived from plasma of a rabbit with genetic hyperlipidemia (KHC rabbit, Japan Laboratory Animals Inc.) was added. A test compound further dissolved in dimethyl sulfoxide (DMSO) and diluted with FBS-containing RPMI-1640 medium and a control solvent were applied. After cultivation in a carbon dioxide incubator for 3 days, the cells were washed with phosphate-buffered saline (pH 7.0), and the lipid was extracted with hexane-isopropanol (3:2). In addition, the cells were lysed with 1N-NaOH, and the protein content was measured. Free cholesterol and cholesterol ester in the lipid extraction sample were measured according to the method of Kunitomo et al. [Japan. J. Pharmacol., 34, 153-158 (1984)]. Cholesterol esters in the control cells and the cells treated with the test compound were compared, and the cholesterol ester accumulation inhibitory rate of the test compound was calculated.

[5] = Oral administration experiment (plasma concentration); type: in vivo; details: (10 mg)/kg orally, male SD rats, plasma 0.5-6 hr
Experimental: The test compound (10 mg)/kg suspended in 5% gum arabic solution was forcedly administered orally to male SD rats (body weight 200-250 g). At 0.5, 1, 2, 4, 6 hr after administration, blood was drawn without anesthesia, and heparin plasma was separated by a conventional method. The concentration of the test compound in the plasma was measured by high performance liquid chromatography.

Row | maximum blood concentration [5] | Structure (SMILES) | inhibitory rate (%) (10^−4M), lipid peroxidation [1] | inhibitory rate (%) (10^−4M), stable radical ([2]; room temperature for 60 min) | liver ACAT inhibition rate (%) (concentration: 10^−6 M) [3] | cholesteryl ester accumulation inhibitory rate (%) (concentration: 10^−6 M) [4] | inhibitory rate (%) (10^−4M), stable radical ([2]; room temperature 20 min (Examples 69, 72 and 73))
1 | – | CC(C)(C)CN1Cc2ccccc2C[C@H]1C(=O)Nc1cc(C(C)(C)C)c(O)c(C(C)(C)C)c1 [Example 47, N-(3,5-di-tert-butyl-4-hydroxyphenyl)-2-(2,2-dimethylpropyl)-1,2,3,4-tetrahydroisoquinoline-(3S)-carboxamide] | 100.1% | 66.1% | – | – | –
2 | – | Cc1cc(NC(=O)[C@@H]2Cc3ccccc3CN2CC(C)(C)C)c(C)c(C)c1O.Cl [Example 48, 2-(2,2-dimethylpropyl)-N-(4-hydroxy-2,3,5-trimethylphenyl)-1,2,3,4-tetrahydroisoquinoline-(3S)-carboxamide hydrochloride] | 100.5% | 91.7% | – | – | –
3 | – | Cc1cc(NC(=O)[C@@H]2Cc3ccccc3CN2C(=O)C(C)C)c(C)c(C)c1O [Example 50, N-(4-hydroxy-2,3,5-trimethylphenyl)-2-isobutyryl-1,2,3,4-tetrahydroisoquinoline-(3S)-carboxamide] | 85.7% | – | – | – | –
4 | – | CCCCCN1Cc2ccccc2C[C@H]1C(=O)Nc1cc(C(C)(C)C)c(O)c(C(C)(C)C)c1 [Example 51, N-(3,5-di-tert-butyl-4-hydroxyphenyl)-2-pentyl-1,2,3,4-tetrahydroisoquinoline-(3S)-carboxamide] | 100.3% | 63.8% | – | – | –
5 | 0.91 µg/mL | Cc1cc(NC(=O)[C@@H]2Cc3ccc(N(C)C)cc3CN2C(=O)C(C)C)c(C)c(C)c1O.Cl [Example 72, 7-dimethylamino-N-(4-hydroxy-2,3,5-trimethylphenyl)-2-isobutyryl-1,2,3,4-tetrahydroisoquinoline-(3S)-carboxamide hydrochloride] | – | – | 91.4% | 80.5% | 97.0%
6 | – | CCCN1Cc2cc(N(C)C)ccc2C[C@H]1C(=O)Nc1cc(C)c(O)c(C)c1C [Example 84, 7-dimethylamino-N-(4-hydroxy-2,3,5-trimethylphenyl)-2-propyl-1,2,3,4-tetrahydroisoquinoline-(3S)-carboxamide] | 100.9% | 71.9% | – | – | –
7 | 0.60 µg/mL | Cc1cc(NC(=O)[C@@H]2Cc3ccc(N4CCN(C)CC4)cc3CN2C(=O)C(C)(C)C)c(C)c(C)c1O [Example 122, 2-(2,2-dimethylpropionyl)-N-(4-hydroxy-2,3,5-trimethylphenyl)-7-(4-methylpiperazin-1-yl)-1,2,3,4-tetrahydroisoquinoline-(3S)-carboxamide] | 75.9% | 72.3% | – | – | –
8 | – | CCCCCCCC(C)(C)CN1Cc2cc(OC(C)(C)C(=O)O)ccc2C[C@H]1c1cc(C)c(O)c(C)c1C [Example 132, 2-{[2-(2,2-dimethylnonyl)-(3S)-(4-hydroxy-2,3,5-trimethylphenyl)-1,2,3,4-tetrahydroisoquinolin-7-yl]oxy}-2-methylpropionic acid] | 105.6% | 80.7% | – | – | –
9 | 0.48 µg/mL | CCN(CC)Cc1ccc2c(c1)CN(C(=O)C(C)(C)C)[C@H](C(=O)Nc1cc(C)c(O)c(C)c1C)C2 [Example 133, 7-diethylaminomethyl-2-(2,2-dimethylpropionyl)-N-(4-hydroxy-2,3,5-trimethylphenyl)-1,2,3,4-tetrahydroisoquinoline-(3S)-carboxamide] | – | 65.5% | – | – | –
10 | – | CCCN(C)Cc1ccc2c(c1)CN(C(=O)C(C)(C)C)[C@H](C(=O)Nc1cc(C)c(O)c(C)c1C)C2 [Example 136, 2-(2,2-dimethylpropionyl)-N-(4-hydroxy-2,3,5-trimethylphenyl)-7-(N-methylpropylamino)methyl-1,2,3,4-tetrahydroisoquinoline-(3S)-carboxamide] | 89.6% | 71.3% | – | 66.4% | –
11 | 0.42 µg/mL | CCCN(C)Cc1ccc2c(c1)CN(C(=O)C(C)C)[C@H](C(=O)Nc1cc(C)c(O)c(C)c1C)C2 [Example 138, N-(4-hydroxy-2,3,5-trimethylphenyl)-2-isobutyryl-7-(N-methylpropylamino)methyl-1,2,3,4-tetrahydroisoquinoline-(3S)-carboxamide] | – | – | – | – | –
12 | – | Cc1cc(NC(=O)[C@@H]2Cc3ccc(CN(C)CCF)cc3CN2C(=O)C(C)(C)C)c(C)c(C)c1O [Example 139, 2-(2,2-dimethylpropionyl)-7-(2-fluoro-N-methylethylamino)methyl-N-(4-hydroxy-2,3,5-trimethylphenyl)-1,2,3,4-tetrahydroisoquinoline-(3S)-carboxamide] | 99.7% | – | – | 84.6% | –
13 | 0.44 µg/mL | Cc1cc(NC(=O)[C@@H]2Cc3ccc(CNCCF)cc3CN2C(=O)C(C)(C)C)c(C)c(C)c1O.Cl [Example 140, 2-(2,2-dimethylpropionyl)-7-(2-fluoroethylamino)methyl-N-(4-hydroxy-2,3,5-trimethylphenyl)-1,2,3,4-tetrahydroisoquinoline-(3S)-carboxamide hydrochloride] | – | – | – | – | –
14 | 0.49 µg/mL | Cc1cc(NC(=O)[C@@H]2Cc3ccc(CN4CC(F)C4)cc3CN2C(=O)C(C)(C)C)c(C)c(C)c1O.Cl [Example 141, 2-(2,2-dimethylpropionyl)-7-(3-fluoroazetidin-1-yl)methyl-N-(4-hydroxy-2,3,5-trimethylphenyl)-1,2,3,4-tetrahydroisoquinoline-(3S)-carboxamide hydrochloride] | 94.8% | 63.7% | – | 88.0% | –
15 | 0.46 µg/mL | COC1CN(Cc2ccc3c(c2)CN(C(=O)C(C)(C)C)[C@H](C(=O)Nc2cc(C)c(O)c(C)c2C)C3)C1.Cl [Example 143, 2-(2,2-dimethylpropionyl)-N-(4-hydroxy-2,3,5-trimethylphenyl)-7-(3-methoxyazetidin-1-yl)methyl-1,2,3,4-tetrahydroisoquinoline-(3S)-carboxamide hydrochloride] | 64.1% | 61.0% | – | 60.9% | –

— patent US20100022582A1, “Tetrahydroisoquinoline Compound and Medicinal Use Thereof” (priority 2005, published 2010)
